The source of these data is patent US5447954A, “Phenylderivate as inhibitors of ATP citrate lyase” (SmithKline Beecham p.l.c., priority 1992, dated 1995).

Structures can show the parent of a compound that is named as a salt. Where two headings read alike, the source gives them in different places.

In general, Ki refers to the dissociation constant of the complex between target and ligand, obtained from inhibition or displacement.

Assay [1] deals with T1, rat ATP citrate lyase (Rattus norvegicus, UniProt P16638).
T1 construct: prior to removal of the livers; ATP Citrate lyase was prepared according to the method of Wraight et al; from tissue; host or cells: liver of male Wistar rats (fasted, then fed a high carbohydrate diet)
T1 sequence (P16638 1-1100): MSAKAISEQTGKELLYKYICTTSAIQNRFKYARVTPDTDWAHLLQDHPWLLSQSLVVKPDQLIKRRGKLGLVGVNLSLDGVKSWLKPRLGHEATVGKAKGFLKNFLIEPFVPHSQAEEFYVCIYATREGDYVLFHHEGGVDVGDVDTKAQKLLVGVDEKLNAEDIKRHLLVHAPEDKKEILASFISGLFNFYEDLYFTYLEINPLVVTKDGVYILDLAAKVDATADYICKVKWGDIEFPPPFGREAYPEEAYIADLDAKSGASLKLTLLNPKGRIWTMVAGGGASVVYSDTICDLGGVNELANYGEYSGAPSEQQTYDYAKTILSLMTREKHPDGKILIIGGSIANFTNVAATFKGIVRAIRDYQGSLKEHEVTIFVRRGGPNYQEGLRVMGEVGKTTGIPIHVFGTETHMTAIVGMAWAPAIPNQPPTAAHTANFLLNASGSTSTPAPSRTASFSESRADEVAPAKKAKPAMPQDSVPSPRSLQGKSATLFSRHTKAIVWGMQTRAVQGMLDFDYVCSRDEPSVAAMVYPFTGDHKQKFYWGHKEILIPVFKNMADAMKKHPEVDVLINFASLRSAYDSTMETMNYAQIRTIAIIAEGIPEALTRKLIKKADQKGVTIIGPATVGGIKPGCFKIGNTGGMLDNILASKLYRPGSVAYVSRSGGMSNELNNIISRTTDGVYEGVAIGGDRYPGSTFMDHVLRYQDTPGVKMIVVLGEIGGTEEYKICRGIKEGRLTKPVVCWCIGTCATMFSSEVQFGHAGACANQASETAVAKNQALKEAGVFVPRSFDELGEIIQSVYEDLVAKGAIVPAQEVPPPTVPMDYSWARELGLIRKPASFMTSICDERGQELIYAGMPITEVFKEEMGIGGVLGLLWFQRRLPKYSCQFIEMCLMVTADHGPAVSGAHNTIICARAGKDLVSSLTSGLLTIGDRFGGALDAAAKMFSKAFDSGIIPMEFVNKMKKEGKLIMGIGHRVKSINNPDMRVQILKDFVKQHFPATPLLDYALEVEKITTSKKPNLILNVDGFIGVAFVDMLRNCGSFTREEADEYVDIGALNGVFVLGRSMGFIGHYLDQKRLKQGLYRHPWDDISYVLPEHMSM
Nature of the assay: Assay of ATP Citrate lyase in the presence of inhibitors (rat enzyme). In kind it is biochemical. The conditions noted are these: 100 μM citrate, pH 8.0, 25° C. Here is the method:
1. RAT ATP CITRATE LYASE (ACL) ASSAY
Purification of ATP Citrate lyase-human and rat enzymes
Male Wistar rats were fasted for 24 h, then fed on a high carbohydrate diet for 72 h prior to removal of the livers. ATP Citrate lyase was prepared according to the method of Wraight et al (Anal. Biochem., 1985, 144, 604-609) with modifications for large scale purification according to Wells (Eur. J. Biochem., 1991, 199, 163-168). Protein obtained by this method was pure as judged by SDS-PAGE.
Assay of ATP Citrate lyase in the presence of inhibitors
(§1) ATP Citrate lyase activity was assayed at 25° C. by reducing the oxaloacetate produced with malate dehydrogenase and NADH while monitoring at 340 nm using a Beckman DU50 spectrophotometer (according to the method of Linnet al (J. Biol. Chem., 1979, 254, 1691-1698)). Briefly, ATP citrate lyase (human or rat) was added to a 1 ml cuvette containing 50 mM Tris/HCl, pH=8.0, 0.2 mM NADH, 10 mM MgCl2, 10 mM KCl, 5 mM ATP, 200 μM coenzyme A, 10 mM dithiothreitol and malate dehydrogenase. An aqueous solution of inhibitor was added (for inhibitors which were insoluble in water, a stock solution was prepared in DMSO. However the final DMSO concentration in the cuvette was not allowed to exceed 1%.). Finally, tripotassium citrate was added to 100 μM final. This is Km for citrate (Wells et al (Eur. J. Biochem., 1992, 204, 249-255) and Houston et al (Biochim. Biophys. Acta, 1985, 844, 233-239)). Data analysis was performed using the curve fitting package Enzfitter (Elsevier Biosoft). For competitive inhibitors data was fitted to the equation
where v is the observed rate and I is the concentration of inhibitor added. Thus the dissociation constant Ki for the inhibitor could be found.

Assay [2] relates to Sprague Dawley rat plasma cholesterol and triglyceride levels. Nature of the assay: Measurement of hyperlipidaemic activity in rats: plasma cholesterol and triglyceride levels. Format: in vivo. Particulars: in diet at 0.125% (w:w) for 7 days. Here is the method:
(§2) 3. Measurement of hyperlipidaemic activity in rats and dogs
The compound of example 2 was administered to Spmgue Dawley rats in their diet at a concentration of 0.125% (w:w) for 7 days.

For assay [3], the system named is Beagle dog plasma cholesterol and triglyceride levels. In words: Measurement of hyperlipidaemic activity in dogs: plasma cholesterol and triglyceride levels. Format: in vivo. Particulars: male Beagle dogs; 25 mg/kg/day for 2 weeks. Here is the method: as §2
25 (b) Dog The compound of example 2 was administered to male Beagle dogs at a level of 25 mg/kg/day for 2 weeks.

Assay [4] concerns HepG2 cells. In words: Effect of compounds on cholesterol (CL) and fatty acid (FA) synthesis in HepG2 cells. In kind it is cell-based. The conditions noted are these: Homo sapiens; for activity at 30 µM: Conc. 30 μM; for activity at 1000 µM: Conc. 1000 μM; for activity at 3 µM: Conc. 3 μM; for activity at 10 µM: Conc. 10 μM. As for the experimental part:
2. Measurement of effect of compounds on cholesterol (CL) and fatty acid (FA) synthesis in HepG2 Cells HepG2 cells were cultured in 24-well cell culture plates in DMEM (Dulbecco's Modified Eagle's Medium) containing Hepes (20 mM), bicarbonate (10 mM), glutamine (2 mM) and foetal calf serum (10% w/v). Once the cells had grown to between 80% and 90% confluence, the medium was replaced by DMEM without the addition of foetal calf serum and the cells incubated overnight. The rates of cholesterol and fatty acid synthesis were then measured by the addition of ^3 H2 O, to a specific radioactivity of 71 mCi/mmol, for the final 90 min of the incubation. Vehicle or test compound were added to the medium either 1.5 or 14.5 hr prior to the addition of ^3 H2 O to give the final desired concentration. Incubations were terminated and the rates of cholesterol and fatty acid synthesis determined from the amounts of ^3 H incorporated into cellular cholesterol and fatty acids as described previously (Berkhout et al.; Biochem J., 1990, 272, 181).

In assay [5] the target is T2, human ATP citrate lyase (Homo sapiens, UniProt P53396).
T2 construct: made in house
T2 sequence (P53396 1-1101): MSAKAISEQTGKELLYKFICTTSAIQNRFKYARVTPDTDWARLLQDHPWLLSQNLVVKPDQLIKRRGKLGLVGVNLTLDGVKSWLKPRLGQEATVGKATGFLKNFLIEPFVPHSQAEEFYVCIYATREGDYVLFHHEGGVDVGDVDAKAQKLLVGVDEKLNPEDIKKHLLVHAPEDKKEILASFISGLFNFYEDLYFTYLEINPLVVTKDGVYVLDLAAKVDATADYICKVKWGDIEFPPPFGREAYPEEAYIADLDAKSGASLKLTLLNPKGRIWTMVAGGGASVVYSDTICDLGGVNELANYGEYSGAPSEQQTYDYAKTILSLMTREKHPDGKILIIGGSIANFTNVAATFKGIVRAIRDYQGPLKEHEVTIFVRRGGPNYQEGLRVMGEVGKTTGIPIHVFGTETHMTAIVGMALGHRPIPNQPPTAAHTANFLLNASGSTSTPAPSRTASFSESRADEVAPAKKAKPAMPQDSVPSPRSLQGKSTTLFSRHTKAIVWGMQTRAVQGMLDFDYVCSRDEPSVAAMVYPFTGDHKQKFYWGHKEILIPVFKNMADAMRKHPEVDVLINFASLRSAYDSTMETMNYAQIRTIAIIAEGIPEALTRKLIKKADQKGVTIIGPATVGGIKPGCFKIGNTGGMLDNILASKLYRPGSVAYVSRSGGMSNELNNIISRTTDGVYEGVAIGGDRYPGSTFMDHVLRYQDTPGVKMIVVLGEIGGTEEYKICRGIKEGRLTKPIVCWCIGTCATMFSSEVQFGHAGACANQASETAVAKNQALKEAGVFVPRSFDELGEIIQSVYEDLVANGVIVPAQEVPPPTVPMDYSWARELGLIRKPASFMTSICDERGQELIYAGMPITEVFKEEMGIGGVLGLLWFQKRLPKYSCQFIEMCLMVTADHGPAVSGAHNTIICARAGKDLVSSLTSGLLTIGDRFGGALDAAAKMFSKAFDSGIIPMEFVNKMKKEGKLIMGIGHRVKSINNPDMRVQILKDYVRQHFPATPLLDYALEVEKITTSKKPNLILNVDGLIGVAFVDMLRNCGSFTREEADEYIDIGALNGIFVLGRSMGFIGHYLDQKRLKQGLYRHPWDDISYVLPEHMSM
In words: Assay of ATP Citrate lyase in the presence of inhibitors (human enzyme). Format: biochemical. Particulars: 100 μM citrate, pH 8.0, 25° C. As for the experimental part:
as §1, with “Purification of ATP Citrate lyase-human and rat enzymes (ii) human enzyme Human ATP citrate lyase was prepared as described in European Journal of Biochemistry, 1992, 204, 491-99, with modifications for large scale purification according to Wells as referred to above. Protein obtained by this method was pure as judged by SDS-PAGE. Assay of ATP Citrate lyase in the presence of inhibitors ATP Citrate” for “ATP Citrate”, “method of […] al (J.” for “method of Linnet al (J.”, “(Elsevier Biosoft). […]” for “(Elsevier Biosoft). For competitive inhibitors data was fitted to the equation”

Regarding `O=C(O)C[C@]1(O)C[C@H](CCCCCCc2ccc(Cl)cc2Cl)OC1=O` (relative stereo) [Example 2, ±(3R*, 5S*) 3-Carboxymethyl-5-[6-(2,4-dichlorophenyl)hexyl]3-hydroxytetrahydrofuran-2-one], the “activity against ATP citrate lyase (rat)” value in assay [1] was “inactive”. Moreover, the “reduction of plasma cholesterol levels” value in assay [2] is listed as 30%; in assay [3], 20-25%. In addition, the “reduction of plasma triglyceride levels” value was 64% in assay [2] and 20-25% in assay [3]. Besides, the activity at 30 µM in assay [4] (read-out: CL synthesis) is 8 ± 3%; in assay [4] (read-out: FA synthesis), 32 ± 3%.

In the case of `O=C(O)C[C@](O)(C[C@@H](O)CCCCCCc1ccc(Cl)cc1Cl)C(=O)O` (single isomer, unassigned) [Example 20, (-) (3R*,5S*) 3-Carboxy-11-(2 4-dichlorophenyl)-3 5-dihydroxyundecanoic acid, disodium salt], the Ki in assay [1] was determined as 700 nM; in assay [5], 690 nM.

For `O=C(O)C[C@](O)(C[C@@H](O)CCCCCCc1ccc(Cl)cc1Cl)C(=O)O` (relative stereo) [Example 1, ±(3R*, 5S*) 3-Carboxy-11-(2,4-dichlorophenyl)-3,5-dihydroxyundecanoic acid, disodium salt], the Ki in assay [1] came out at 800 nM. Further, the activity at 1000 µM was determined as 80 ± 6% in assay [4] (read-out: CL synthesis) and 123 ± 3% in assay [4] (read-out: FA synthesis).

Take `O=C(O)[C@H](O)[C@@]1(O)C[C@@H](CCCCCCc2ccc(Cl)cc2Cl)OC1=O` (relative stereo) [Example 11, ±(1'R*,3S*,5R*) 3-[Carboxy(hydroxy)methyl]-5-[6-(2,4-dichlorophenyl)hexyl]-3-hydroxytetrahydrofuran-2-one]: in assay [4] (read-out: CL synthesis), the activity at 3 µM turned out to be 69 ± 13% and the activity at 10 µM turned out to be 86 ± 29%. For the same molecule, in assay [4] (read-out: FA synthesis), the activity at 3 µM came to 74 ± 11% and the activity at 10 µM was 76 ± 13%.

For `O=C(O)C[C@](O)(C[C@@H](O)CCCCCCc1ccc(Cl)cc1Cl)C(=O)O` (single isomer, unassigned) [Example 18, (+) (3R*,5S*) 3-Carboxy-11-(2,4-dichlorophenyl)-3,5-dihydroxyundecanoic acid, disodium salt], the values for the Ki in assay [1] and in assay [5] were 700 nM and 760 nM, respectively.
